Laboratory results reported in the supplement of paper PMC10307832.

What was measured:
Test in all cases: relative viability (nuclei count vs DMSO), 5 days (fraction); higher = more cells survive
Palbociclib + Alpelisib = compound: CC(=O)c1c(C)c2cnc(Nc3ccc(N4CCNCC4)cn3)nc2n(C2CCCC2)c1=O [Palbociclib] + Cc1nc(NC(=O)N2CCC[C@H]2C(N)=O)sc1-c1ccnc(C(C)(C)C(F)(F)F)c1 [Alpelisib] (partner 2 µM)
In short: (§1)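 The day after seeding in 1536-well plates, lung cancer cell lines were treated by pin tool with a single drug, or with a fixed anchor-drug dose together with five library-drug doses (not always all listed) in √10 steps. After 5 days, a combined fix-and-stain solution (final 0.05% Triton X-100, 1% formaldehyde, 1 ug/ml Hoechst) was added. Nuclei counted on 4× images gave relative viability as treated counts over vehicle counts, reported as the median of duplicate plates.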

Palbociclib + Navitoclax = compound: CC(=O)c1c(C)c2cnc(Nc3ccc(N4CCNCC4)cn3)nc2n(C2CCCC2)c1=O [Palbociclib] + CC1(C)CCC(c2ccc(Cl)cc2)=C(CN2CCN(c3ccc(C(=O)NS(=O)(=O)c4ccc(N[C@H](CCN5CCOCC5)CSc5ccccc5)c(S(=O)(=O)C(F)(F)F)c4)cc3)CC2)C1 [Navitoclax] (partner 0.5 µM)
In short: as §1

Palbociclib + Vorinostat = compound: CC(=O)c1c(C)c2cnc(Nc3ccc(N4CCNCC4)cn3)nc2n(C2CCCC2)c1=O [Palbociclib] + O=C(CCCCCCC(=O)Nc1ccccc1)NO [Vorinostat] (partner 1 µM)
In short: as §1

Palbociclib + Olaparib = compound: CC(=O)c1c(C)c2cnc(Nc3ccc(N4CCNCC4)cn3)nc2n(C2CCCC2)c1=O [Palbociclib] + O=C(c1cc(Cc2n[nH]c(=O)c3ccccc23)ccc1F)N1CCN(C(=O)C2CC2)CC1 [Olaparib] (partner 8 µM)
In short: as §1

Cell Line | relative viability (Palbociclib + Alpelisib; first compound 0.01 µM) | relative viability (Palbociclib + Alpelisib; first compound 0.03162 µM) | relative viability (Palbociclib + Alpelisib; first compound 0.1 µM) | relative viability (Palbociclib + Alpelisib; first compound 0.3162 µM) | relative viability (Palbociclib + Alpelisib; first compound 1 µM) | relative viability (Palbociclib + Navitoclax; first compound 0.01 µM) | relative viability (Palbociclib + Navitoclax; first compound 0.03162 µM) | relative viability (Palbociclib + Navitoclax; first compound 0.1 µM) | relative viability (Palbociclib + Navitoclax; first compound 0.3162 µM) | relative viability (Palbociclib + Navitoclax; first compound 1 µM) | relative viability (Palbociclib + Vorinostat; first compound 0.01 µM) | relative viability (Palbociclib + Vorinostat; first compound 0.03162 µM) | relative viability (Palbociclib + Vorinostat; first compound 0.1 µM) | relative viability (Palbociclib + Vorinostat; first compound 0.3162 µM) | relative viability (Palbociclib + Vorinostat; first compound 1 µM) | relative viability (Palbociclib + Olaparib; first compound 0.01 µM) | relative viability (Palbociclib + Olaparib; first compound 0.03162 µM) | relative viability (Palbociclib + Olaparib; first compound 0.1 µM) | relative viability (Palbociclib + Olaparib; first compound 0.3162 µM) | relative viability (Palbociclib + Olaparib; first compound 1 µM)
RERF-LC-KJ | 0.893 | 0.866 | 0.827 | 0.798 | 0.867 | 0.87 | 0.8 | 1.26 | 1.32 | 1.11 | 0.724 | 0.613 | 0.66 | 0.747 | 0.682 | 0.896 | 0.83 | 0.919 | 0.942 | 0.821
NCI-H1666 | 0.976 | 0.765 | 0.792 | 0.611 | 0.443 | 0.929 | 0.782 | 0.792 | 0.544 | 0.448 | 1.05 | 0.947 | 0.836 | 0.835 | 0.788 | 0.769 | 0.708 | 0.705 | 0.664 | 0.708
COR-L 105 | 0.916 | 0.888 | 0.792 | 0.7 | 0.444 | 0.943 | 0.808 | 0.669 | 0.586 | 0.401 | 0.9 | 0.887 | 0.612 | 0.611 | 0.482 | 0.711 | 0.552 | 0.564 | 0.475 | 0.432
NCI-H1651 | 1.03 | 0.823 | 0.875 | 0.883 | 0.624 | 1.13 | 0.986 | 0.907 | 0.992 | 0.736 | 0.572 | 0.523 | 0.591 | 0.529 | 0.485 | 0.177 | 0.196 | 0.225 | 0.203 | 0.206
NCI-H441 | – | 0.635 | 0.677 | 0.426 | 0.418 | – | 0.593 | 0.336 | 0.484 | 0.572 | 0.817 | 0.708 | 0.589 | 0.569 | 0.405 | 0.657 | 0.449 | 0.45 | 0.452 | 0.298
H3255 | 0.714 | 0.599 | 0.469 | 0.488 | 0.36 | 0.632 | 0.512 | 0.406 | 0.567 | 0.338 | 0.907 | 0.688 | 0.687 | 0.68 | 0.549 | 0.646 | 0.547 | 0.458 | 0.493 | 0.373
HARA | 0.82 | 0.718 | 0.557 | 0.405 | 0.31 | 1.15 | 1.11 | 0.997 | 0.91 | 0.662 | 0.446 | – | 0.384 | 0.608 | 0.511 | 0.673 | 0.596 | 0.524 | 0.852 | 0.344
NCI-H647 | 1.33 | 0.986 | 0.979 | 1.02 | 0.532 | 1.33 | 0.92 | 0.759 | 0.93 | 0.738 | 0.576 | 0.313 | 0.616 | 0.409 | 0.458 | 0.809 | 0.488 | 0.502 | 0.513 | 0.442
NCI-H2228 | 0.73 | 0.566 | 0.609 | 0.59 | 0.589 | 0.99 | 1.01 | 0.729 | 0.856 | 0.827 | 0.566 | 0.673 | 0.649 | 0.717 | 0.398 | 0.724 | 0.624 | 0.55 | 0.64 | 0.465
LOU-NH91 | 0.753 | 0.609 | 0.545 | 0.576 | 0.55 | 0.721 | 0.491 | 0.457 | 0.505 | 0.462 | 1.02 | 0.623 | 0.695 | 0.675 | 0.673 | 0.959 | 0.696 | 0.677 | 0.664 | 0.559
A-427 | 1.08 | 0.951 | 0.929 | 0.893 | 0.816 | 0.978 | 0.941 | 0.869 | 0.874 | 0.656 | 0.855 | 0.789 | 0.711 | 0.652 | 0.527 | 0.737 | 0.626 | 0.514 | 0.514 | 0.391
NCI-H1993 | 0.679 | 0.635 | 0.597 | 0.614 | 0.631 | 0.84 | 0.875 | 0.752 | 0.771 | 0.706 | 0.8 | 0.539 | 0.625 | 0.644 | 0.65 | 1.14 | 0.907 | 0.945 | 0.846 | 0.703
LXF-289 | 0.99 | 0.988 | 1.01 | 0.923 | 0.767 | 0.94 | 0.94 | 0.937 | 0.83 | 0.772 | 0.77 | 0.268 | 0.66 | 0.782 | 0.672 | 1.1 | 1.08 | 0.951 | 0.969 | 0.865
LK-2 | 1.12 | – | 0.75 | 1.15 | 1.3 | 1.04 | – | 0.651 | 0.819 | 0.843 | 0.383 | 0.217 | 0.281 | 0.248 | 0.324 | 0.896 | 0.656 | 0.625 | 0.585 | 0.556
BEN | 1.04 | 0.847 | 0.634 | 0.834 | 0.499 | 0.0758 | 0.0563 | 0.0761 | 0.0645 | 0.0615 | 0.568 | 0.542 | 0.509 | 0.58 | 0.517 | 1.01 | 0.992 | 0.615 | 0.945 | 0.594
NCI-H2087 | 1.18 | 0.962 | 0.824 | 0.68 | 0.531 | 1.04 | 0.843 | 0.802 | 0.685 | 0.495 | 0.365 | 0.53 | 0.602 | 0.379 | 0.188 | 0.721 | 0.517 | 0.403 | 0.437 | 0.248
